Columns and labels:
Leukotriene C4 synthase = molecular target: T1, Leukotriene C4 synthase (Cavia porcellus, UniProt A6XA80); type: tissue-based, Lung;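 further: enzyme inhibition assay of leukotriene C4 synthase, using LTA4 as the substrate; in other assays of this panel Not Active means under 50% inhibition at 10 µM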
T1 sequence (A6XA80 whole entry): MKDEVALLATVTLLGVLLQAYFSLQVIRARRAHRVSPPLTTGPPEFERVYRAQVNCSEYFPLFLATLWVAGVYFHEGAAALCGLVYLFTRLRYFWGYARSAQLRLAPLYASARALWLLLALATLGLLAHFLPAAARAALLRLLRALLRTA

[1] = molecular target: 5-hydroxytryptamine receptor 4 (Cavia porcellus, UniProt O70528); type: cell membranes, Dunkin-Hartley, Striatum, Membrane; further: in other assays of this panel Not Active means under 50% inhibition at 10 µM
[2] = molecular target: C-C chemokine receptor type 2 (Homo sapiens, UniProt P41597); type: cell membranes, Membrane; conditions: cho-k1; further: in other assays of this panel Not Active means under 50% inhibition at 10 µM
[3] = molecular target: Sodium-dependent dopamine transporter (Homo sapiens, UniProt Q01959); test: DRUGMATRIX: Dopamine Transporter radioligand binding (ligand: [125I] RTI-55); type: cell membranes, CHO-K1, Membrane; conditions: cho-k1; Not Active = under 50% inhibition at 10 µM
[4] = molecular target: T2, Cholecystokinin receptor type A (Homo sapiens, UniProt P32238); type: cell membranes, Membrane; conditions: 1321-n1; further: in other assays of this panel Not Active means under 50% inhibition at 10 µM
T2 sequence (P32238 whole entry): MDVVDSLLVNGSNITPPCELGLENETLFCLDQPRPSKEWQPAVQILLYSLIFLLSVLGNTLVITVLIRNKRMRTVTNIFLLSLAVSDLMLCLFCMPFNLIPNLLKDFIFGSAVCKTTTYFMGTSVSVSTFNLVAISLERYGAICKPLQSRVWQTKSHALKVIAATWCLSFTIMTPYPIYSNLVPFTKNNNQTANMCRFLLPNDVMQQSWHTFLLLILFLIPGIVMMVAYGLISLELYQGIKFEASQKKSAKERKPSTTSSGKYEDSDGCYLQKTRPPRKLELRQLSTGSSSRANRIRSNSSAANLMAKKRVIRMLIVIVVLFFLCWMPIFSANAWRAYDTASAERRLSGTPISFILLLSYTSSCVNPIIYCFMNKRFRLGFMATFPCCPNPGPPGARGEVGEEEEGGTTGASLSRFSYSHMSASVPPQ

[5] = molecular target: T3, Alpha-2C adrenergic receptor (Homo sapiens, UniProt P18825); test: DRUGMATRIX: Adrenergic Alpha-2C radioligand binding (ligand: [3H] MK-912); type: cell membranes, Sf9, Membrane
T3 sequence (P18825 whole entry): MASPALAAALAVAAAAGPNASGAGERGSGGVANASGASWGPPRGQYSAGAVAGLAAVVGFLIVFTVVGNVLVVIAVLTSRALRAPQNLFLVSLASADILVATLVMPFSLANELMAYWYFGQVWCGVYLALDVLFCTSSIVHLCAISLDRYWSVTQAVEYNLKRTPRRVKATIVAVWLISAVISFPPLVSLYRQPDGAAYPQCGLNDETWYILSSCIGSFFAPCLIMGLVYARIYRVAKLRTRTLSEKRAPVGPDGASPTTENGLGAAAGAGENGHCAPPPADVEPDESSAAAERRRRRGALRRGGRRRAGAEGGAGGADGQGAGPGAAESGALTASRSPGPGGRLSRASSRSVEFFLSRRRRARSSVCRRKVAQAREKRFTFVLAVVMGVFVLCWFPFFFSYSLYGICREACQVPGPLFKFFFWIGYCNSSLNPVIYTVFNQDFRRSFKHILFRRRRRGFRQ

Chain of Sodium-dependent dopamine transporter (Q01959 whole entry): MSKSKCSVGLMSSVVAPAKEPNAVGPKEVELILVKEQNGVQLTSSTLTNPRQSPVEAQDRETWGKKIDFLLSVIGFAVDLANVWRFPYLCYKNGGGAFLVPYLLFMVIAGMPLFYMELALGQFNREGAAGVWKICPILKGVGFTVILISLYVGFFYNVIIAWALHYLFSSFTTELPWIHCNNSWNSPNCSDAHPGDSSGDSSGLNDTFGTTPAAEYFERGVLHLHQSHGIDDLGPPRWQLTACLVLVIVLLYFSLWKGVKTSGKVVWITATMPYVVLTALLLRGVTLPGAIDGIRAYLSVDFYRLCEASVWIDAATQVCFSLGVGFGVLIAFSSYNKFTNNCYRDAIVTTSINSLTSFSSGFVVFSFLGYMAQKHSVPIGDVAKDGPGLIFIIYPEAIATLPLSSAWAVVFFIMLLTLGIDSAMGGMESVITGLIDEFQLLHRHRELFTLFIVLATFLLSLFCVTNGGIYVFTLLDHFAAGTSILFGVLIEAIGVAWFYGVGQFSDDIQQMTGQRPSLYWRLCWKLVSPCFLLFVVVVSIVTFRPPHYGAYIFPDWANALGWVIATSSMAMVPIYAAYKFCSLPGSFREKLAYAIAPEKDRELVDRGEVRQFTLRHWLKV
Chain of 5-hydroxytryptamine receptor 4 (O70528 whole entry): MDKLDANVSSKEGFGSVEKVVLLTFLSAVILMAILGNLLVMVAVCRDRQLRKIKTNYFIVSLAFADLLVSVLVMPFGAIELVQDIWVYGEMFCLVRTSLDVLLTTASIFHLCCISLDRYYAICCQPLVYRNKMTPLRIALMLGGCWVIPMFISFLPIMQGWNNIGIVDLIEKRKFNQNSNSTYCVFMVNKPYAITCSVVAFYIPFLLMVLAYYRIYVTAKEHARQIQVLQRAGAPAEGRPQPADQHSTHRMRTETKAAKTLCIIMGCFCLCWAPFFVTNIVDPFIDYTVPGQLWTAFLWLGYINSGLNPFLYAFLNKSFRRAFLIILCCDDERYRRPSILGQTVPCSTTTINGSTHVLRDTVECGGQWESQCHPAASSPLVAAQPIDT
Chain of C-C chemokine receptor type 2 (P41597 whole entry): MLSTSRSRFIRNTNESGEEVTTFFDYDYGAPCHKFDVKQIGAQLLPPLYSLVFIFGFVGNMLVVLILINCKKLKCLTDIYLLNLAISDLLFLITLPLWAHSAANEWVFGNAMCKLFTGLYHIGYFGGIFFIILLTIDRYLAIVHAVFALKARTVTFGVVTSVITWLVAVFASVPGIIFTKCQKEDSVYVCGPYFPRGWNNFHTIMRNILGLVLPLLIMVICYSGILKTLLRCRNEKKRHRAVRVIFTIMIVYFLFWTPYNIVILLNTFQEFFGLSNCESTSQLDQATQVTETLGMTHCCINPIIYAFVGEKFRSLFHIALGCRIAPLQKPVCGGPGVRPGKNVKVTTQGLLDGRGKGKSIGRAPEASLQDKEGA

O=C(c1ccccc1C(F)(F)F)N1CCC(Cc2ccccc2)CC1
IC50 (Leukotriene C4 synthase): Not Active | IC50 [1]: Not Active | IC50 [2]: Not Active | IC50 [3]: Not Active | IC50 [4]: Not Active | IC50 ([5]; sf9): Not Active

O=C/C=C/c1ccccc1
IC50 (Leukotriene C4 synthase): Not Active | IC50 [1]: Not Active | IC50 [2]: Not Active | IC50 [3]: Not Active | IC50 [4]: Not Active | IC50 ([5]; sf9): Not Active

Nc1ccc2c3c(cccc13)C(=O)NC2=O
IC50 (Leukotriene C4 synthase): Not Active | IC50 [1]: Not Active | IC50 [2]: Not Active | IC50 [3]: Not Active | IC50 [4]: Not Active | IC50 ([5]; sf9): Not Active

COc1ccc(C(=O)N2CCCC2=O)cc1
IC50 (Leukotriene C4 synthase): Not Active | IC50 [1]: Not Active | IC50 [2]: Not Active | IC50 [3]: Not Active | IC50 [4]: Not Active | IC50 ([5]; sf9): Not Active

O=c1cnn([C@@H]2O[C@H](CO)[C@@H](O)[C@H]2O)c(=O)[nH]1 [6-AZAURIDINE]
IC50 (Leukotriene C4 synthase): Not Active | IC50 [1]: Not Active | IC50 [2]: Not Active | IC50 [3]: Not Active | IC50 [4]: Not Active | IC50 ([5]; sf9): Not Active

CC[C@H](C)[C@H]1O[C@]2(C=C[C@@H]1C)C[C@@H]1C[C@@H](C/C=C(\C)[C@@H](O[C@H]3C[C@H](OC)[C@@H](O[C@H]4C[C@H](OC)[C@@H](O)[C@H](C)O4)[C@H](C)O3)[C@@H](C)/C=C/C=C3\CO[C@@H]4[C@H](O)C(C)=C[C@@H](C(=O)O1)[C@]34O)O2.CO[C@H]1C[C@H](O[C@H]2[C@H](C)O[C@@H](O[C@@H]3/C(C)=C/C[C@@H]4C[C@@H](C[C@]5(C=C[C@H](C)[C@@H](C(C)C)O5)O4)OC(=O)[C@@H]4C=C(C)[C@@H](O)[C@H]5OC/C(=C\C=C\[C@@H]3C)[C@]54O)C[C@@H]2OC)O[C@@H](C)[C@@H]1O [ABAMECTIN]
IC50 (Leukotriene C4 synthase): Not Active | IC50 [1]: Not Active | IC50 [2]: Not Active | IC50 [3]: Not Active | IC50 [4]: Not Active | IC50 ([5]; sf9): Not Active

NCCCC(O)(P(=O)(O)O)P(=O)(O)O [ALENDRONIC ACID]
IC50 (Leukotriene C4 synthase): Not Active | IC50 [1]: Not Active | IC50 [2]: Not Active | IC50 [3]: Not Active | IC50 [4]: Not Active | IC50 ([5]; sf9): Not Active

Cc1nnc2n1-c1ccc(Cl)cc1C(c1ccccc1)=NC2 [ALPRAZOLAM]
IC50 (Leukotriene C4 synthase): Not Active | IC50 [1]: Not Active | IC50 [2]: Not Active | IC50 [3]: Not Active | IC50 [4]: Not Active | IC50 ([5]; sf9): Not Active

Cn1c(=O)c2[nH]cnc2n(C)c1=O.Cn1c(=O)c2[nH]cnc2n(C)c1=O.NCCN [AMINOPHYLLINE]
IC50 (Leukotriene C4 synthase): Not Active | IC50 [1]: Not Active | IC50 [2]: Not Active | IC50 [3]: Not Active | IC50 [4]: Not Active | IC50 ([5]; sf9): Not Active

CCC1(CCC(C)C)C(=O)NC(=O)NC1=O [AMOBARBITAL]
IC50 (Leukotriene C4 synthase): Not Active | IC50 [1]: Not Active | IC50 [2]: Not Active | IC50 [3]: Not Active | IC50 [4]: Not Active | IC50 ([5]; sf9): Not Active

CC1(C)S[C@@H]2[C@H](NC(=O)[C@H](N)c3ccccc3)C(=O)N2[C@H]1C(=O)O [AMPICILLIN]
IC50 (Leukotriene C4 synthase): Not Active | IC50 [1]: Not Active | IC50 [2]: Not Active | IC50 [3]: Not Active | IC50 [4]: Not Active | IC50 ([5]; sf9): Not Active

COc1ccc(C2C(=O)c3ccccc3C2=O)cc1 [ANISINDIONE]
IC50 (Leukotriene C4 synthase): Not Active | IC50 [1]: Not Active | IC50 [2]: Not Active | IC50 [3]: Not Active | IC50 [4]: Not Active | IC50 ([5]; sf9): Not Active

O=C1O[C@H]([C@@H](O)CO)C(O)=C1O [ASCORBIC ACID]
IC50 (Leukotriene C4 synthase): Not Active | IC50 [1]: Not Active | IC50 [2]: Not Active | IC50 [3]: Not Active | IC50 [4]: Not Active | IC50 ([5]; sf9): Not Active

CN1[C@@H]2CC[C@H]1C[C@@H](OC(=O)C(CO)c1ccccc1)C2 (stereo partly drawn) [ATROPINE]
IC50 (Leukotriene C4 synthase): Not Active | IC50 [1]: Not Active | IC50 [2]: Not Active | IC50 [3]: Not Active | IC50 [4]: Not Active | IC50 ([5]; sf9): Not Active

CC(C(=O)O)c1ccc2oc(-c3ccc(Cl)cc3)nc2c1 (stereo not drawn) [BENOXAPROFEN]
IC50 (Leukotriene C4 synthase): Not Active | IC50 [1]: Not Active | IC50 [2]: Not Active | IC50 [3]: Not Active | IC50 [4]: Not Active | IC50 ([5]; sf9): Not Active

COc1ccc2cc3[n+](cc2c1OC)CCc1cc2c(cc1-3)OCO2.[Cl-] [BERBERINE CHLORIDE]
IC50 (Leukotriene C4 synthase): Not Active | IC50 ([1]; read-out: IC50): 2220 nM | Ki ([1]; read-out: Ki): 370 nM | IC50 [2]: Not Active | IC50 [3]: Not Active | IC50 [4]: Not Active | IC50 ([5]; read-out: IC50): 2840 nM | Ki ([5]; read-out: Ki): 412 nM

— ChEMBL document CHEMBL1909046, “DrugMatrix in vitro pharmacology data”
